Measured values reported in patent US9382290B2, “Aptamer-modified polymeric materials for the binding of factors in a wound environment” (KCI LICENSING, INC., priority 2011, dated 2016).
Where no end group is shown, it is not given here. [ ]: non-standard residue; d: D form. AEEA = NCCOCCOCC(=O)O

Tests used:
[1] = tested on: VEGF; assay: VEGF capture by P16-linker-ROCF construct, elution and ELISA; format: binding
Description: C1 was ROCF alone; C2 was ROCF+EMCS−P16; C3 was ROCF−EMCS+P16; C4 was silanated ROCF alone; C5=silanated ROCF+EMCS−P16; C6 was silanated ROCF−EMCS+P16; 51 was 50× Sulfo-EMCS+P16; and S2 was 100× Sulfo-EMCS+P16. W=Final subsequent PBS wash. E1=50 mM Tris, 80 mM NaCl, 250 mM Imidazole, 45 min. […] E1 (right) indicates the amount of VEGF dislodged from the foam and peptide with an […] after the last wash. […] S2 bound 584 pg/mL, whereas C4 bound 321 pg/m. S2 has the highest concentration of EMCS and therefore the most covalently bound P16. […] Data are given as mean±standard deviation.
P16 was conjugated to ROCF, incubated with VEGF, washed stringently, then eluted with an […]. In this experiment, the test group (P16-linker-foam) bound 584 pg/mL, whereas the greatest negative control bound 321 pg/mL. Non-specific binding was expected due to the hydrophobic nature of both the ROCF and the target protein VEGF.
Target sequence in this assay (P15692 207-320 limits assumed): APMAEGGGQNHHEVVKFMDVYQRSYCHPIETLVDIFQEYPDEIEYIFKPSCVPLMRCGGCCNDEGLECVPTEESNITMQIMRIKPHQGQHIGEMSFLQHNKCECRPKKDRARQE

[2] = tested on: VEGF; assay: Binding of P-16 to VEGF (statement)
Target sequence in this assay (P15692 207-311 limits assumed): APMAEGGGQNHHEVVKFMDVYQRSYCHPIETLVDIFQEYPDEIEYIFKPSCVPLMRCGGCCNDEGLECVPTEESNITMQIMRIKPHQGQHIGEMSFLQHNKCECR

[3] = tested on: PDGF; assay: Binding of P-16 to PDGF (statement)
[4] = molecular target: granulocyte macrophage colony stimulating factor (GM-CSF) (Homo sapiens, UniProt P04141); assay: GM-CSF capture by P22-modified silylated 30 PHR chitosan foam, elution and ELISA; format: binding; conditions: 333 ng/mL GM-CSF incubated 24 hr; unbound washed off; eluted with imidazole-based buffer E1; 30 PHR chitosan foam silylated with compound 602
Chain of granulocyte macrophage colony stimulating factor (GM-CSF) (P04141 18-144, species assumed): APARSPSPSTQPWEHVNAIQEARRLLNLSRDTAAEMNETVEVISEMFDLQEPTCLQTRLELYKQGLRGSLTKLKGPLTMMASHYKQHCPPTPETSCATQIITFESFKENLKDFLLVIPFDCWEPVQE
Description: FIG. 8: Silylated with compound 602, 30 PHR Chitosan/P-22 captures more granulocyte macrophage colony stimulating factor (GM-CSF). Briefly, 333 ng/mL of GM-CSF was incubated with the samples for 24 hr. The unbound protein was washed off then the samples were eluted with an imidazole-based buffer, E1. The samples were cleaned up via buffer exchange with PBS and quantified by ELISA.
The test procedure used included the steps listed below: All buffers and reagents were prepared in advance, except the Sulfo-EMCS, which was reconstituted immediately before use. See Sulfo-EMCS Product Instructions (Thermo Scientific-Pierce), which is incorporated by reference herein in its entirety. • 1.1. BupH Borate Buffer: Two packs BupH Borate Buffer powderwere added to 1 L DI H2O as per manufacturer's instructions. • 1.2. Conjugation Buffer, BupH Borate Buffer/5 mM EDTA was prepared by dissolving 146 mg EDTA in 500 mL BupH Borate Buffer. • 1.3. Sulfo-EMCS, allowed to warm to RT, was reconstituted immediately before performing the Sulfo-EMCS addition step. […]
• 1.8. • 1.8.1. […] Use the coupons immediately for growth factor binding or transfer the moist coupons to a capped vial and store them at 4° C. until ready for use for no longer than. […] The unbound proteins were washed off then the samples were eluted with an imidazole-based buffer, E1 before a buffer exchange with PBS and quantification via ELISA.

[5] = molecular target: GM-CSF (Homo sapiens, UniProt P04141); assay: GM-CSF capture by P22-linker-ROCF construct, elution and ELISA; format: binding; conditions: upon elution; sample with the most capture peptide vs ROCF alone
Chain of GM-CSF (P04141 18-144, species assumed): as above
Description: FIG. 11 provides elution results for the P22/GM-CSF experiment. P22 was obtained from the Bachem Americas Inc. 2010 peptide catalog. P22 is a GM-CSF antagonist that binds GM-CSF in an inhibitory manner. Briefly, 330 nmol P22 was conjugated to a polyurethane-based ROCF via Sulfo-EMCS chemistry. The P22-linker-foam construct was incubated with 1 μg GM-CSF overnight, washed five times, and subjected to stringent elutions. […] Upon elution, the sample with the most capture peptide, S3, outperformed ROCF alone by 49%. […] Samples S1-S3 all contained peptide-linker-foam with Sulfo-EMCS concentration increasing from S1 to S3 (S1=10× Sulfo-EMCS+P22; S2=25× Sulfo-EMCS+P22 and S3=50× Sulfo-EMCS+P22), C1 was ROCF alone, C2 was Silanated ROCF+EMCS−P22 and C3 was Silanated ROCF−EMCS+P22. There were no positive controls available for this experiment, as no technology has yet been proven to covalently conjugate peptides to polyurethane. However, positive controls were later developed for subsequent experiments based on experimental results. Data are given as mean±standard deviation.
With the -Sil bond, a “capture peptide” was next conjugated to the amino-functionalized ROCF. To do so, Sulfo-EMCS chemistry developed in Example 2 was used to conjugate a commercially available GM-CSF antagonist capture peptide, P22, to ROCF. […] The eluted GM-CSF was quantified via ELISA (FIG. 11). […]

| Substance | VEGF bound (elution E1, ELISA) ([1]; P16 conjugated to silanated ROCF via Sulfo-EMCS, incubated with VEGF, washed, E1 = 50 mM Tris, 80 mM NaCl, 250 mM Imidazole, 45 min) [pg/mL] | more VEGF bound than greatest negative control (silanated ROCF, C4) ([1]; elution data) [%] | binding to VEGF [2] | binding to PDGF [3] | GM-CSF captured (eluted, quantified by ELISA) [4] [pg/mL] | more GM-CSF captured than ROCF alone [5] [%] |
| --- | --- | --- | --- | --- | --- | --- |
| GHQGQHIGQMS-AEEAc-Cys-NH2 (GHQGQHIGQMS[AEEA]C-NH2; N-terminus assumed; SMILES CC[C@H](C)[C@H](NC(=O)[C@H](Cc1c[nH]cn1)NC(=O)[C@H](CCC(N)=O)NC(=O)CNC(=O)[C@H](CCC(N)=O)NC(=O)[C@H](Cc1c[nH]cn1)NC(=O)CN)C(=O)NCC(=O)N[C@@H](CCC(N)=O)C(=O)N[C@@H](CCSC)C(=O)N[C@@H](CO)C(=O)NCCOCCOCC(=O)N[C@@H](CS)C(N)=O; listed as Homo sapiens) [P16, Anti-VEGF peptide designed de novo] | 584 | 82 | shown to bind | shown to bind | – | – |
| NAIQEARRLLNLSRD (listed as Homo sapiens) [P22, Commercially available anti-GM-CSF peptide (Bachem), GM-CSF antagonist] | – | – | – | – | 299 | 49 |
